Assay results reported in patent US10988445B2 (AstraZeneca AB, priority 2015, dated 2021).

Tested on: human TH17 cells
Test: Inhibition of IL-17 release from human TH17 cells
Format: cell-based
Settings: Homo sapiens, 96 h, isolated human TH17 cells, 4 days culture, IL-17A by HTRF; read-out: pIC50 IL-17 release (converted)
Description: Inhibition of IL-17 Release from Human TH17 Cells (IL-17 Release)
This test is designed to screen compounds for their inhibitory effect on the release of IL-17 from isolated and cultured human TH17 cells.
Peripheral blood mononuclear cells (PBMC) were isolated from heparin treated human whole blood fromhealthy donors by density gradient centrifugation. TH17 cells (CD4+CXCR3-CCR6+) were enriched using a human TH17 Cell Enrichment Kit (Stemcell Technologies) according to the manufacturer's protocol. […] On day 4 supernatants were collected and IL-17A was measured using a Human IL-17 HTRF Assay kit (Cisbio Bioassays) according to the manufacturer's protocol. […] Results

Q: For `O=CN1Cc2cc(S(=O)(=O)CC3(O)CC3)ccc2C1C(=O)Nc1ccc(C(O)(C(F)(F)F)C(F)(F)F)cc1` (centres unmarked) [Example 1102, 2-Formyl-N-[4-(1,1,1,3,3,3-hexafluoro-2-hydroxypropan-2-yl)phenyl]-5-{[(1-hydroxycyclopropyl)methyl]sulfonyl}-2,3-dihydro-1H-isoindole-1-carboxamide], which IC50 is on record?
A: The IC50 was 0.0316 µM.

Q: `COC(=O)N1Cc2cc(S(=O)(=O)CC3CC3)ccc2C1C(=O)Nc1ccc(C(O)(C(F)(F)F)C(F)(F)F)cc1` (centres unmarked) [Example 213, Methyl 5-[(cyclopropylmethyl)sulfonyl]-1-{[4-(1,1,1,3,3,3-hexafluoro-2-hydroxypropan-2-yl)phenyl]carbamoyl}-1,3-dihydro-2H-isoindole-2-carboxylate] was tested. Which IC50 did it give?
A: The IC50 was 0.00794 µM.

Q: With `COCCS(=O)(=O)c1ccc2c(c1)CN(C(=O)C1(OC)CC1)C2C(=O)Nc1ccc(C(O)(C(F)(F)F)C(F)(F)F)cc1` (centres unmarked) [Example 703, N-[4-(1,1,1,3,3,3-hexafluoro-2-hydroxypropan-2-yl)phenyl]-2-[(1-methoxycyclopropyl)carbonyl]-5-[(2-methoxyethyl)sulfonyl]-2,3-dihydro-1H-isoindole-1-carboxamide] as the compound, how does the IC50 read?
A: The IC50 was 0.0251 µM.

Q: Which IC50 does the source give for `CS(=O)(=O)c1ccc2c(c1)CN(C(=O)C1(C#N)CC1)C2C(=O)Nc1ccc(C(O)(C(F)(F)F)C(F)(F)F)cc1F` (centres unmarked) [Example 436, 2-[(1-Cyanocyclopropyl)carbonyl]-N-[2-fluoro-4-(1,1,1,3,3,3-hexafluoro-2-hydroxypropan-2-yl)phenyl]-5-(methylsulfonyl)-2,3-dihydro-1H-isoindole-1-carboxamide] here?
A: The IC50 was 0.0158 µM.

Q: With `C[C@@H](F)CC(=O)N1Cc2cc(S(C)(=O)=O)ccc2C1C(=O)Nc1ccc(C(O)(C(F)(F)F)C(F)(F)F)cc1` (stereo partly drawn) [Example 418, 2-[(3R)-3-Fluorobutanoyl]-N-[4-(1,1,1,3,3,3-hexafluoro-2-hydroxypropan-2-yl)phenyl]-5-(methylsulfonyl)-2,3-dihydro-1H-isoindole-1-carboxamide] as the compound, how does the IC50 read?
A: The IC50 was 0.0398 µM.

Q: `CS(=O)(=O)c1ccc2c(c1)CN(C(=O)C1CC(O)C1)C2C(=O)Nc1ccc(C(O)(C(F)(F)F)C(F)(F)F)cc1` (stereo not drawn) [Example 430, N-[4-(1,1,1,3,3,3-Hexafluoro-2-hydroxypropan-2-yl)phenyl]-2-[(trans-3-hydroxycyclobutyl)carbonyl]-5-(methylsulfonyl)-2,3-dihydro-1H-isoindole-1-carboxamide] was tested. Which IC50 did it give?
A: The IC50 was 0.126 µM.

Q: `O=C(Nc1ccc(C(O)(C(F)(F)F)C(F)(F)F)cc1)C1NCc2cc(S(=O)(=O)CC3(F)CC3)ccc21` (centres unmarked) [Example 1300, 5-{[(1-Fluorocyclopropyl)methyl]sulfonyl}-N-[4-(1,1,1,3,3,3-hexafluoro-2-hydroxypropan-2-yl)phenyl]-2,3-dihydro-1H-isoindole-1-carboxamide] was tested. Which IC50 did it give?
A: Its IC50 is 0.251 µM.

Q: How did the IC50 turn out when `CCS(=O)(=O)c1ccc2c(c1)CN(C(=O)C1CCCO1)C2C(=O)Nc1ccc(C(O)(C(F)(F)F)C(F)(F)F)cc1` (centres unmarked) [Example 114, 5-(Ethylsulfonyl)-N-[4-(1,1,1,3,3,3-hexafluoro-2-hydroxypropan-2-yl)phenyl]-2-(tetrahydrofuran-2-ylcarbonyl)-2,3-dihydro-1H-isoindole-1-carboxamide] was run?
A: Its IC50 is 0.0316 µM.

Q: With `CS(=O)(=O)c1ccc2c(c1)CN(C(=O)CC1CC1)C2C(=O)Nc1ccc(C(O)(C(F)(F)F)C(F)(F)F)cc1` (centres unmarked) [Example 411, 2-(Cyclopropylacetyl)-N-[4-(1,1,1,3,3,3-hexafluoro-2-hydroxypropan-2-yl)phenyl]-5-(methylsulfonyl)-2,3-dihydro-1H-isoindole-1-carboxamide] as the compound, how does the IC50 read?
A: The IC50 was 0.0251 µM.

Q: `COCCS(=O)(=O)c1ccc2c(c1)CN(C(=O)COC)C2C(=O)Nc1ccc(C(O)(C(F)(F)F)C(F)(F)F)cc1` (centres unmarked) [Example 706, N-[4-(1,1,1,3,3,3-Hexafluoro-2-hydroxypropan-2-yl)phenyl]-2-(methoxyacetyl)-5-[(2-methoxyethyl)sulfonyl]-2,3-dihydro-1H-isoindole-1-carboxamide] was tested. Which IC50 did it give?
A: Its IC50 is 0.0501 µM.

Q: For `CS(=O)(=O)c1ccc2c(c1)CN(C=O)C2C(=O)Nc1ccc(C(O)(C(F)(F)F)C(F)(F)F)cc1F` (centres unmarked) [Example 442], which IC50 is on record?
A: Its IC50 is 0.0501 µM.
